pEC50: −log10 of the molar value.

Holding throughout (type): cell-based
Test [1] concerns B16-F10 cells. The test can be described thus: Growth inhibition of murine melanoma B16-F10 cells (resazurin). The method, then: B16-F10 (ATCC; CRL-6475) a murine melanoma cell line was maintained in complete Dulbecco's Modification of Eagle's Medium (DMEM) (DMEM supplemented with 10% (v/v) Fetal bovine serum, 2 mM glutamine, 10 mM HEPES and Penicillin/Streptomycin at 100 IU/ml and 100 μg/ml respectively). The cells were cultured in an incubator at 37° C. in 5% CO2 and 95% humidified air. For cell growth inhibition assays, B16-F10 cells were seeded at 1.25×10^3 cells/well in 90 μl complete media into Corning 3904 black-walled, clear-bottom tissue culture plates and the plates were incubated overnight to allow cells to establish and enter log phase growth. Two independent assays were performed using 200 mM or 400 mM stock solutions prepared in 100% DMSO. 10× concentrated serial dilutions of the compound of Formula (V) were prepared in appropriate culture medium. Ten μl volumes of the serial dilutions were added to the test wells in triplicate resulting in final concentrations ranging from 500 μM to 158 nM or 1 mM to 7.81 μM. The plates were returned to the incubator for 48 hours. The final concentration of DMSO was 0.25% in all samples. […] Since living cells metabolize Resazurin, the fluorescence of the reduction product of Resazurin was measured using a Fusion microplate fluorometer (Packard Bioscience) with λex =535 nm and λem=590 nm filters. […]
In general terms: The colour change of resazurin is a common sign of viable cells or microbes.

For test [2], the system named is Candida albicans. The test can be described thus: Antimicrobial MIC assay (NCCLS M7-A5). The method, then:
(§1) Minimum inhibitory concentrations (MICs) were determined according to the National Committee for Clinical Laboratory Standards (NCCLS) susceptibility test guideline M7-A5 (Ferraro, M. 2001 Methods for Dilution Antimicrobial Susceptibility Tests for Bacteria that Grow Aerobically; Approved Standard (NCCLS). National Committee for Clinical Laboratory Standards (NCCLS), Villanova, which is incorporated herein by reference in its entirety).

The subject of test [3] is Bacillus cereus 14579. As to the kind of experiment: Antimicrobial MIC assay (NCCLS M7-A5). The method, then: as §1
Test [4] has as its system Escherichia coli imp. The test can be described thus: Antimicrobial MIC assay (NCCLS M7-A5). Here is the method: as §1
Test [5] relates to Staphylococcus aureus - MSSA. As to the kind of experiment: Antimicrobial MIC assay (NCCLS M7-A5). Here is the method:
as §1

Test [6] deals with HT-29 cells. The test can be described thus: Growth inhibition of human colorectal adenocarcinoma HT-29 cells (resazurin). The method, then:
HT-29 (ATCC; HTB-38) a human colorectal adenocarcinoma cell line was maintained in complete McCoy's 5A medium (McCoy's 5A medium supplemented with 10% (v/v) Fetal bovine serum, 2 mM glutamine, 10 mM HEPES, 1% (v/v) non-essential amino acids (NEAA), 1 mM sodium pyruvate and Penicillin/Streptomycin at 100 IU/ml and 100 μg/ml respectively). The cells were cultured in an incubator at 37° C. in 5% CO2 and 95% humidified air. For cell growth inhibition assays, HT-29 cells were seeded at 5×10^3 cells/well in 90 μl complete media into Corning 3904 black-walled, clear-bottom tissue culture plates and the plates were incubated overnight to allow cells to establish and enter log phase growth. Two independent assays were performed using 200 mM or 400 mM stock solutions prepared in 100% DMSO. 10× concentrated serial dilutions of the compound of Formula (V) were prepared in appropriate culture medium. Ten μl volumes of the serial dilutions were added to the test wells in triplicate resulting in final concentrations ranging from 500 μM to 158 nM or 1 mM to 7.81 μM. The plates were returned to the incubator for 48 hours. The final concentration of DMSO was 0.25% in all samples. […] Since living cells metabolize Resazurin, the fluorescence of the reduction product of Resazurin was measured using a Fusion microplate fluorometer (Packard Bioscience) with λex =535 nm and λem=[…] filters. […]

Usually pEC50 stands for the EC50 on a negative log10 scale, so that one unit is a factor of ten. As a reminder, the MIC is the smallest concentration in the dilution series that meets the test's criterion for growth inhibition. The low end stands for inhibition by little substance, the high end for a need for much substance. On to `CC(=C/C(=O)c1ccc[nH]1)/C=C/C(O)C1(C)CCC(C(C)(C)O)O1` (stereo not shown) [Formula (V)], for which, in test [1] (B16-F10), the “inhibition of growth of B16-F10 tumor cells (in words)” value is given as “able to inhibit the growth”. Further, the negative-log EC50 (pEC50) in test [1] (Mus musculus, B16-F10, 48 hours drug exposure, resazurin fluorescence, read-out: EC50 against B16-F10 cells) was 3.59; in test [6] (Homo sapiens, HT-29, 48 hours drug exposure, resazurin fluorescence, read-out: EC50 against HT-29 cells), 3.54. Moreover, the MIC in test [2] is > 128 µg/mL; in test [3] (Bacillus cereus 14579), 72 µg/mL; in test [4] it was 128 µg/mL; in test [5] (Staphylococcus aureus - MSSA), 64 µg/mL. In addition, the “anti-bacterial activity versus gram positive microorganisms (in words)” value in test [3] (gram positive: Bacillus cereus 14579) and in test [5] (gram positive: Staphylococcus aureus - MSSA) was “possess anti-bacterial activity” throughout. The “inhibition of growth of HT-29 tumor cells (in words)” value in test [6] (HT-29) is on record as “able to inhibit the growth”.

Source of the values: patent publication US7550604B2, “Pyrroloterpenes and use of the same as antimicrobial and anticancer agents” (Nereus Pharmaceuticals, Inc., priority 2004, dated 2009).
